Laboratory results published in patent US4206215A, “Antimicrobial bis-[4-(substituted-amino)-1-pyridinium]alkanes” (Sterling Drug Inc., priority 1977, dated 1980).

Assays:
P. mirab. MGH-1 = assay: In vitro antibacterial activity, MIC (modified Autotiter method); assay type: cell-based, Proteus mirabilis; conditions: Proteus mirabilis, 20 h, 18-20 hours at 37° C.; read-out: MIC P. mirab. MGH-1
How it was run: (§1)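 Double-strength inoculated semisynthetic broth containing glucose was dispensed onto compound dilutions. These dilutions, twofold each, were prepared in sterile water by the Autotiter from a 1,000 mcg./ml. solution, covering final levels of 500 to 0.06 mcg./ml.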

K. pneum. 39645 = assay: as above; assay type: cell-based, Klebsiella pneumoniae; conditions: Klebsiella pneumoniae, 20 h, 18-20 hours at 37° C.; read-out: MIC K. pneum. 39645
How it was run: as §1

T. menta. 9129 = assay: In vitro antifungal activity, MIC (modified Autotiter method); assay type: cell-based, Trichophyton mentagrophytes; conditions: Trichophyton mentagrophytes, 20 h, 18-20 hours at 37° C.; read-out: MIC T. menta. 9129
How it was run: as §1

C. albicans Wisc. = assay: as above; assay type: cell-based, Candida albicans; conditions: Candida albicans, 20 h, 18-20 hours at 37° C.; read-out: MIC C. albicans Wisc.
How it was run: as §1

C. albicans 10231 = assay: as above; assay type: cell-based, Candida albicans; conditions: Candida albicans, 10231, 20 h, 18-20 hours at 37° C.; read-out: MIC C. albicans 10231
How it was run: as §1

Ps. aerug. MGH-2 = assay: In vitro antibacterial activity, MIC (modified Autotiter method); assay type: cell-based, Pseudomonas aeruginosa; conditions: Pseudomonas aeruginosa, 20 h, 18-20 hours at 37° C.; read-out: MIC Ps. aerug. MGH-2
How it was run: as §1

S. Aureus Smith = assay: as above; assay type: cell-based, Staphylococcus aureus; conditions: Staphylococcus aureus, 20 h, 18-20 hours at 37° C.; read-out: MIC S. Aureus Smith
How it was run: as §1

A. niger 16404 = assay: In vitro antifungal activity, MIC (modified Autotiter method); assay type: cell-based, Aspergillus niger; conditions: Aspergillus niger, 16404, 20 h, 18-20 hours at 37° C.; read-out: MIC A. niger 16404
How it was run: as §1

E. coli AB1932-1 = assay: In vitro antibacterial activity, MIC (modified Autotiter method); assay type: cell-based, Escherichia coli; conditions: Escherichia coli, AB19321, 20 h, 18-20 hours at 37° C.; read-out: MIC E. coli AB1932-1
How it was run: as §1

E. coli 100/B22 = assay: as above; assay type: cell-based, Escherichia coli; conditions: Escherichia coli, 100/B22, 20 h, 18-20 hours at 37° C.; read-out: MIC E. coli 100/B22
How it was run: as §1

E. coli Vogel = assay: as above; assay type: cell-based, Escherichia coli; conditions: Escherichia coli, 20 h, 18-20 hours at 37° C.; read-out: MIC E. coli Vogel
How it was run: as §1

[1] = test system: Herpes simplex type 2 virus; assay: Virucidal activity in vitro (plaque inhibition test); assay type: cell-based; conditions: 2 mg. of test compound on growth medium
Method: Virucidal activity of representative examples against Herpes simplex type 2 virus was determined in vitro employing a procedure similar to the plaque inhibition test for detection of specific inhibitors of DNA-containing viruses published by E. C. Herrmann, Jr., Proc. Soc. Exp. Biol. Med. 107, 142 (1961) wherein 2 mg. of the test compound was placed on the surface of the growth medium.

S. pyogen. C203 = assay: In vitro antibacterial activity, MIC (modified Autotiter method); assay type: cell-based, Streptococcus pyogenes; conditions: Streptococcus pyogenes, 20 h, 18-20 hours at 37° C.; read-out: MIC S. pyogen. C203
How it was run: as §1

Row | SMILES | MIC (P. mirab. MGH-1) [µg/mL] | MIC (K. pneum. 39645) [µg/mL] | MIC (T. menta. 9129) [µg/mL] | MIC (C. albicans Wisc.) [µg/mL] | MIC (C. albicans 10231) [µg/mL] | MIC (Ps. aerug. MGH-2) [µg/mL] | MIC (S. Aureus Smith) [µg/mL] | MIC (A. niger 16404) [µg/mL] | MIC (E. coli AB1932-1) [µg/mL] | MIC (E. coli 100/B22) [µg/mL] | MIC (E. coli Vogel) [µg/mL] | Virucidal activity against Herpes simplex type 2 virus [1] | MIC (S. pyogen. C203) [µg/mL]
1 | c1c[n+](CCCCCC[n+]2ccc(NC3CCCCC3)cc2)ccc1NC1CCCCC1 [Example 36, 1,6-bis-[4-(cyclohexylamino)-1-pyridinium]hexane dibromide] | > 125 | > 125 | 15.6 | 125 | 125 | > 125 | 15.6 | 125 | 125 | > 125 | > 125 | active | 15.6
2 | c1c[n+](CCCCCCC[n+]2ccc(NC3CCCCC3)cc2)ccc1NC1CCCCC1 [Example 37, 1,7-bis-[4-(cyclohexylamino)-1-pyridinium]heptane dibromide] | > 125 | > 125 | 15.6 | 125 | 125 | 125 | 7.8 | > 125 | 125 | > 125 | > 125 | active | 7.8
3 | c1c[n+](CCCCCCCCC[n+]2ccc(NC3CCCCC3)cc2)ccc1NC1CCCCC1 [Example 39, 1,9-bis-[4-(cyclohexylamino)-1-pyridinium]nonane dibromide] | > 500 | 125 | 3.9 | 15.6 | 15.6 | 500 | 0.98 | 7.8 | 31.3 | 31.3 | 31.3 | inactive | 3.9
4 | c1c[n+](CCCCCCCCCC[n+]2ccc(NC3CCCCC3)cc2)ccc1NC1CCCCC1 [Example 40, 1,10-bis-[4-(cyclohexylamino)-1-pyridinium]decane dibromide] | > 125 | > 125 | 1.95 | 7.8 | 3.9 | > 125 | 0.24 | 7.8 | 7.8 | 15.6 | 15.6 | inactive | 3.9
5 | CCCCC(CC)CNc1cc[n+](CCCCC[n+]2ccc(NCC(CC)CCCC)cc2)cc1 (centres unmarked) [Example 53, 1,5-bis-[4-(2-ethylhexylamino)-1-pyridinium]pentane dibromide] | > 125 | > 125 | 7.8 | 15.6 | 31.3 | 125 | 0.49 | 31.3 | 7.8 | 15.6 | 15.6 | active | 0.625
6 | CCCCC(CC)CNc1cc[n+](CCCCCC[n+]2ccc(NCC(CC)CCCC)cc2)cc1 (centres unmarked) [Example 54, 1,6-bis-[4-(2-ethylhexylamino)-1-pyridinium]hexane dibromide] | > 125 | 125 | 1.95 | 7.8 | 7.8 | > 250 | 0.49 | 15.6 | 1.95 | 3.9 | 7.8 | active | 0.625
7 | CCCCC(CC)CNc1cc[n+](CCCCCCC[n+]2ccc(NCC(CC)CCCC)cc2)cc1 (centres unmarked) [Example 55, 1,7-bis-[4-(2-ethylhexylamino)-1-pyridinium]heptane dibromide] | > 125 | 7.8 | 1.95 | 7.8 | 7.8 | 125 | 0.49 | 15.6 | 3.9 | 3.9 | 3.9 | active | 0.49
8 | CCCCC(CC)CNc1cc[n+](CCCCCCCCC[n+]2ccc(NCC(CC)CCCC)cc2)cc1 (centres unmarked) [Example 57, 1,9-bis-[4-(2-ethylhexylamino)-1-pyridinium]nonane dibromide] | 125 | 7.8 | 0.98 | 3.9 | 3.9 | 125 | 0.31 | 15.6 | 0.98 | 0.98 | 0.98 | active | 0.625
